Reference: patent US10233201B2, “Class of HDAC inhibitors expands the renal progenitor cells population and improves the rate of recovery from acute kidney injury” (University of Pittsburgh—Of the Commonwealth System of …, priority 2012, dated 2019)
Several values for one entry are separate records, joined by “and”; a condition that tells them apart may be missing. Identical values can stand only once. Like-named read-outs stand apart in the source and are kept apart here.

Columns and labels:
[1] = test system: renal progenitor cells (lhx1a expression); assay: In situ hybridization for lhx1a expression in 10-somite embryos (renal progenitor cell expansion); format: in vivo; settings: for embryos with expanded lhx1a expression (% expansion) / lhx1a expansion class, 3 μM: 3 μM from 2 hpf, 10-somite embryos; for lhx1a expansion class, 800 nM: 800 nM from 2 hpf; for lhx1a expansion class, 200 nM: 200 nM from 2 hpf; for lhx1a expansion class, 400 nM: 400 nM from 2 hpf; for Expansion of Cells, 200 nM / Expansion of Cells, 800 nM / Expansion of Cells, 1.5 μM / Expansion of Cells, 400 nM: lhx1a in situ hybridization, includes repeats* and recounts
Protocol: (§1) PTBA was synthesized as described below. Hydroxyurea and aphidicolin were obtained from Sigma-Aldrich.
(§2) In situ hybridization and immunocytochemistry: In situ hybridization was performed as previously described with some modifications. 142 Hybridization temperature was 65° C. Embryos were blocked in 2% blocking reagent (Roche) with 5% sheep serum in MAB (100 mM maleic acid and 150 mM NaCl [pH 7.5]). Whole-mount immunocytochemistry with 1:25 mouse anti-α6F antibody (Developmental Studies Hybridoma Bank) and 1:100 Cy3 secondary antibody (Jackson ImmunoResearch) was performed as described previously. 108 Embryos were embedded in JB-4 for sectioning per the manufacturer's instructions (Polysciences), sectioned at 5 μm, and mounted with Cytoseal 60 (Richard-Allan Scientific).
The remaining PTBA analogs were synthesized.
In situ hybridization for lhx1a was performed as described above. […] Compounds were classified as effective, partially-effective or ineffective based on comparison to the effects of PTBA at a given concentration.
Testing of the compounds is on-going, but for those tested, Table 3 provides first pass EC50s based upon colormetric in situ hybridizations for the Lhx1a mRNA expression levels. After the procedure is run, in situ hybridization is done for the lhx1 mRNA expression and the number of embryos that show an expanded kidney field is manually counted to establish the percent of embryos showing expansion. Then the EC50 is determined by plotting the percent expansion in Excel, graphing the results and using the trendline function to determine the 50 percent point. […] For UPHD-00186, the 4 values for EC50 are shown in Table 3 for the corresponding expression in zebrafish embryos employed an artificial intelligence-based image analysis method termed cognition network technology (CNT) for n=4.

[2] = test system: zebrafish larvae; assay: Phenotypic scoring of edema and survival in zebrafish larvae at 72 hpf; format: in vivo; settings: for larval phenotype in phenotypic screen of analogs: 3 μM, 2 to 72 hpf; for phenotype in initial chemical screen: 10 μM, larvae at 72 hpf
Description: as §1
Wild type: no visible edema or developmental delay.

[3] = test system: pax2a, pax8 expression (kidney field); assay: In situ hybridization for renal progenitor markers pax2a, pax8 / kidney field; format: in vivo, zebrafish; settings: screen hits, data not shown
Protocol: as §1, §2

[4] = test system: human HDACs (HeLa cell nuclear extract); assay: Fluorescence histone deacetylation assay with HeLa cell nuclear extract; format: biochemical; settings: 5 mM compound, 10 μg HeLa extract
Protocol: To evaluate this in vitro, the deacetylation of a fluorescent peptide substrate was measured in the presence of human HDACs.
In vitro HDAC activity assays were performed using a fluorescence HDAC assay kit (Active Motif) according to the manufacturer's instructions. For maintaining compound solubility at 5 mM, the final DMSO concentration in all assay wells was increased to 5%. Fluorescence was detected using an M5 Plate Reader ([…])

[5] = test system: mouse models of unilateral ureteral obstruction (UUO); assay: Unilateral ureteral obstruction (UUO); format: in vivo; settings: IP days 0 to 6, kidneys harvested at day 7
Description: The model of unilateral ureteral obstruction generates progressive renal fibrosis. Surgically created UUO can be experimentally manipulated with respect to timing, severity, and duration, while reversal of the obstruction permits the study of recovery.
FIG. 47 represents the results of the testing of compounds UPHD-00022, UPHD-00025 (PTBA), UPHD-00029, UPHD-00036, and UPHD-00186, for their efficacy in mouse models of unilateral ureteral obstruction (UUO) as follows: in the UUO models, one ureter was ligated for 7 days and compounds were delivered via IP for days 0 to 6. At day 7 kidneys were harvested for Sirius red staining. […] Therefore, in the models tested, the only compound proven to be effective in all models and with significant delayed onset of treatment is UPHD-186.

[6] = Danio rerio, 800 nM, read-out: embryos with expanded lhx1a expression (% expansion)
[7] = Danio rerio, 400 nM, read-out: embryos with expanded lhx1a expression (% expansion)

2-amino-PTBA [Compound 2-amino-PTBA, reference compound]
embryos with expanded lhx1a expression (% expansion) [1]: no expansion

O=C(O)c1cccc(Sc2ccccc2)c1 [3-(phenylthio)benzoic acid, reference compound]
embryos with expanded lhx1a expression (% expansion) [1]: no expansion

O=C(O)CCCSc1ccc2ccccc2c1 [4-(naphthalen-2-ylthio)butanoic acid, reference compound]
embryos with expanded lhx1a expression (% expansion) ([1]; listed as 4-(napthalen-2-ylthio)butanoic acid): no expansion

O=C(CCCSc1ccc(Cl)cc1)NO [4-[(4-chlorophenyl)thio]-N-hydroxybutanamide]
lhx1a expansion class, 800 nM [1]: +/−

O=C(O)CCCCc1ccccc1 [5-phenylpentanoic acid, reference compound]
embryos with expanded lhx1a expression (% expansion) [1]: no expansion

Cn1cc(C(=O)Cc2ccccc2)cc1/C=C/C(=O)NO [APHA compound 8, reference compound]
lhx1a expansion class, 3 μM [1]: −

Nc1ccccc1NC(=O)c1ccc(CNC(=O)OCc2cccnc2)cc1 [MS-275, reference compound]
larval phenotype in phenotypic screen of analogs [2]: showed no effect on zebrafish embryos
lhx1a expansion class, 3 μM [1]: −

O=C(CCCSc1ccccc1)NO [N-hydroxy-4-(phenylthio)butanamide]
lhx1a expansion class, 800 nM [1]: +/−

Cc1ccc(SCCCC(=O)NO)cc1 [N-hydroxy-4-[(4-methylphenyl)thio]butanamide]
lhx1a expansion class, 200 nM [1]: −
lhx1a expansion class, 400 nM [1]: −
lhx1a expansion class, 800 nM [1]: +
responders at 0.8 µM [1, 6]: 61%

N=C(N)SCc1ccc(Cl)cc1Cl.O=[N+]([O-])c1c(O)c(Cl)cc(Cl)c1Cl [NSC35400]
phenotype in initial chemical screen [2]: generated pericardial edema
effect on size of the kidney field / renal markers (in situ hybridization) [3]: did not affect the size of the kidney field

COc1ccc(/C=C(\C#N)C(N)=O)c(OC)c1 [NSC134664]
phenotype in initial chemical screen [2]: generated pericardial edema
effect on size of the kidney field / renal markers (in situ hybridization) [3]: did not affect the size of the kidney field

N=C(N)c1ccc(N=Nc2c(O)ccc3c2[nH]c2ccccc23)cc1 [NSC357777]
phenotype in initial chemical screen [2]: generated pericardial edema
effect on size of the kidney field / renal markers (in situ hybridization) [3]: did not affect the size of the kidney field

O=C(O)CCCS(=O)(=O)c1ccccc1 [PSOBA, 4-(phenylsulfonyl)butanoic acid, reference compound]
HDAC activity, % of the control value [4]: 70%
embryos with expanded lhx1a expression (% expansion) [1]: no ability to expand renal progenitor cells

O=C(CCCCCCC(=O)Nc1ccccc1)NO [SAHA, reference compound]
larval phenotype in phenotypic screen of analogs [2]: showed no effect on zebrafish embryos
lhx1a expansion class, 3 μM [1]: −

O=C(CCCSc1ccc(F)cc1)NO [UPHD-00029, 4-[(4-fluorophenyl)sulfanyl]-N-hydroxybutanamide]
lhx1a expansion class, 200 nM [1]: −
lhx1a expansion class, 400 nM [1]: +/−
lhx1a expansion class, 800 nM [1]: +
responders at 0.4 µM [1, 7]: 35%
responders at 0.8 µM [1, 6]: 60%
Expansion of Cells, 200 nM [1]: 6.25%
Expansion of Cells, 800 nM [1]: 60% and 33%
Expansion of Cells, 1.5 μM [1]: 82.4%
fibrosis (Sirius red) and expression of fibrosis markers in UUO kidney [5]: reduce both fibrosis and expression of fibrosis markers

Nc1ccccc1NC(=O)CCCSc1ccccc1 [UPHD-00036, N-(2-aminophenyl)-4-(phenylsulfanyl)butanamide]
fibrosis (Sirius red) and expression of fibrosis markers in UUO kidney [5]: reduce both fibrosis and expression of fibrosis markers

O=C(CCCCCSc1ccccc1)Nc1ccccc1O [UPHD-00187, N-(2-hydroxyphenyl)-6-(phenylsulfanyl) hexanamide]
Expansion of Cells, 400 nM [1]: 58%
Expansion of Cells, 800 nM [1]: 52%
Expansion of Cells, 1.5 μM [1]: 52%

Nc1ccccc1NC(=O)CCCCSCc1ccccc1 [UPHD-00188, N-(2-aminophenyl)-5-(benzysulfanyl) pentanamide]
Expansion of Cells, 800 nM [1]: 0%
Expansion of Cells, 1.5 μM [1]: 0%

Nc1ccccc1NC(=O)CCCSCCc1ccccc1 [UPHD-00190, N-(2-aminophenyl)-4-[(2-phenylethyl)sulfanyl]butanamide]
expansion ([1]; 0.055 μM): 72%
Expansion of Cells, 200 nM [1]: 50%
Expansion of Cells, 400 nM [1]: 0%
Expansion of Cells, 800 nM [1]: 0%
Expansion of Cells, 1.5 μM [1]: 0%

CCC(=O)CCCCC[C@@H]1NC(=O)[C@H]2CCCCN2C(=O)[C@H]([C@@H](C)CC)NC(=O)[C@H](Cc2cn(OC)c3ccccc23)NC1=O [apicidin, reference compound]
lhx1a expansion class, 200 nM [1]: −
lhx1a expansion class, 400 nM [1]: +/−
lhx1a expansion class, 800 nM [1]: XX^1
embryos surviving treatment ([1]; 800 nM, n=36): 31%
treated embryos killed ([1]; 800 nM, n=36): 69%
lethality before the 10-somite stage ([1]; 1.5 μM): lethal
lethality before the 10-somite stage ([1]; 3 μM): killed all treated embryos
responders at 0.4 µM ([1]; Danio rerio, read-out: embryos with expanded lhx1a expression (% expansion), 400 nM): 22%

CCC(C)OC(=O)CCCSc1ccccc1 (stereo not shown) [butan-2-yl 4-(phenylthio)butanoate]
lhx1a expansion class, 800 nM [1]: +/−

COC(=O)CCCSc1ccc(F)cc1 [methyl 4-[(4-fluorophenyl)thio]butanoate]
lhx1a expansion class, 200 nM [1]: +/−
lhx1a expansion class, 400 nM [1]: +/−
lhx1a expansion class, 800 nM [1]: +
lethality before the 10-somite stage ([1]; 3 μM): killed all treated embryos
responders at 0.2 µM ([1]; Danio rerio, 200 nM, read-out: embryos with expanded lhx1a expression (% expansion)): 22%
responders at 0.4 µM [1, 7]: 26%
responders at 0.8 µM [1, 6]: 64%

COC(=O)CCCSc1ccc(C)cc1 [methyl 4-[(4-methylphenyl)thio]butanoate]
lhx1a expansion class, 200 nM [1]: −
lhx1a expansion class, 400 nM [1]: −
lhx1a expansion class, 800 nM [1]: +
responders at 0.8 µM [1, 6]: 49%

CCCOC(=O)CCCSc1ccccc1 [propyl 4-(phenylthio)butanoate]
lhx1a expansion class, 800 nM [1]: +/−

CC(C)(C)OC(=O)CCCSc1ccccc1 [tert-butyl 4-(phenylthio)butanoate]
larval phenotype in phenotypic screen of analogs [2]: did not cause a statistically-significant decrease in the number of wild-type larval phenotypes

O=C(CCCCCCC(=O)Nc1ccc([C@H]2O[C@@H](CSc3nc(-c4ccccc4)c(-c4ccccc4)o3)C[C@@H](c3ccc(CO)cc3)O2)cc1)NO [tubacin]
larval phenotype in phenotypic screen of analogs [2]: appeared wild-type

CCCC(CCC)C(=O)O [valproic acid]
larval phenotype in phenotypic screen of analogs [2]: generated edemic and/or lethal phenotypes
